In US6586439B2, “Pharmaceutically active compounds” (Pfizer Inc., priority 1999, dated 2003):

Test system: cGMP PDE5
Experiment: In vitro PDE inhibitory activity against cGMP PDE5 (batch method or scintillation proximity assay)
Assay type: biochemical, human or rabbit
Experimental: In vitro PDE inhibitory activities against cyclic guanosine 3′,5′-monophosphate (cGMP) and cyclic adenosine 3′,5′-monophosphate (cAMP) phosphodiesterases were determined by measurement of their IC50 values (the concentration of compound required for 50% inhibition of enzyme activity).
The required PDE enzymes were isolated from a variety of sources, including human corpus cavernosum, human and rabbit platelets, human cardiac ventricle, human skeletal muscle and bovine retina, essentially by the method of W. J. Thompson and M. M. Appleman (Biochem., 1971, 10, 311). In particular, the cGMP-specific PDE (PDE5) and the cGMP-inhibited cAMP PDE (PDE3) were obtained from human corpus cavernosum tissue, human platelets or rabbit platelets; the cGMP-stimulated PDE (PDE2) was obtained from human corpus cavernosum; the calcium/calmodulin (Ca/CAM)-dependent PDE (PDE1) from human cardiac ventricle; the cAMP-specific PDE (PDE4) from human skeletal muscle; and the photoreceptor PDE (PDE6) from bovine retina. Phosphodiesterases 7-11 were generated from full length human recombinant clones transfected into SF9 cells.
Assays were performed either using a modification of the “batch” method of W. J. Thompson et al. (Biochem., 1979, 18, 5228) or using a scintillation proximity assay for the direct detection of AMP/GMP using a modification of the protocol described by Amersham plc under product code TRKQ7090/7100. In summary, the effect of PDE inhibitors was investigated by assaying a fixed amount of enzyme in the presence of varying inhibitor concentrations and low substrate, (cGMP or cAMP in a 3:1 ratio unlabelled to [^3H]-labeled at a conc ˜1/3 Km) such that IC50 ≅Ki. The final assay volume was made up to 100 μl with assay buffer [20 mM Tris-HCl pH 7.4, 5 mM MgCl2, 1 mg/ml bovine serum albumin]. Reactions were initiated with enzyme, incubated for 30-60 min at 30° C. to give <30% substrate turnover and terminated with 50 μl yttrium silicate SPA beads (containing 3 mM of the respective unlabelled cyclic nucleotide for PDEs 9 and 11). Plates were re-sealed and shaken for 20 min, after which the beads were allowed to settle for 30 min in the dark and then counted on a TopCount plate reader (Packard, Meriden, Conn.) Radioactivity units were converted to % activity of an uninhibited control (100%), plotted against inhibitor concentration and inhibitor IC50 values obtained using the ‘Fit Curve’ Microsoft Excel extension.

Row | Structure (SMILES) | Percentage inhibition of PDE 5 (Concentration 100 nM) | Percentage inhibition of PDE 5 (Concentration 10 nM)
1 | CCCOc1ccc(S(=O)(=O)N2CCN(CC)CC2)cc1-c1nc2[nH]cnc2c(=O)[nH]1 [Example 1, 2-[5-(4-Ethylpiperazin-1-ylsulfonyl)-2-n-propoxyphenyl]-9H-purin-6-one] | 47 | 
2 | CCCOc1ccc(S(=O)(=O)N2CCN(CC)CC2)cc1-c1nc2c(ncn2-c2ccc(N)cc2)c(=O)[nH]1 [Example 4, 9-(4-Aminophenyl)-2-[5-(4-ethylpiperazin-1-ylsulfonyl)-2-n-propoxy-phenyl]purin-6-one] |  | 74.1
3 | CCCOc1ccc(S(=O)(=O)N2CCN(C)CC2)cc1-c1nc2[nH]c(-c3cccnc3)nc2c(=O)[nH]1 [Example 5, 2-[5-(4-Methylpiperazin-1-ylsulfonyl)-2-n-propoxyphenyl]-8-(pyridin-3-yl)-9H-purin-6-one] | 48 | 
4 | CCCCOc1ncc(S(=O)(=O)N2CCN(CC)CC2)cc1-c1nc2c(nc(Cc3ccccc3)n2CCC)c(=O)[nH]1 [Example 7, 8-Benzyl-2-[2-n-butoxy-5-(4-ethylpiperazin-1-ylsulfonyl)pyridin-3-yl]-9-n-propylpurin-6-one] |  | 80.3
5 | CCCOc1ccc(S(=O)(=O)N2CCN(c3ccccn3)CC2)cc1-c1nc2c(ncn2CCC)c(=O)[nH]1 [Example 9, 2-(2-n-Propoxy-5-[4-{pyridin-2-yl}piperazin-1-ylsulfonyl]phenyl)-9-n-propylpurin-6-one] |  | 100
